The values that follow come from patent publication US12673975B2, “Cyclic peptide, cell scaffold material, cell separating material, and medium” (FUJIFILM Corporation, priority 2019, dated 2026).

Starred links: 1 amine or outer side, 2 acyl side, 3 side chain; linkers in the order of their positions; H or OH if unused. Positions of bridges follow the written chain, without caps; N, C: chain ends. Non-standard residues stand in square brackets, D forms with d. Residues, ends and D or L forms follow the SMILES beside them. hCys = N[C@@H](CCS)C(=O)O; Dab = NCC[C@H](N)C(=O)O; X2 = O=C(C[*:1])[*:2] Some results are limits rather than exact numbers.

A short description of data set [1]: Evaluation of molecule stability (alkali treatment, residual rate by LC/MS). Format: physicochemical. The conditions noted are these: 500 μM peptide aqueous solution plus equivalent of 1 M sodium hydroxide, 15° C., 3 hours, LC/MS peak area. On the procedure: The molecule stability of the cyclic peptide was evaluated by analyzing the alkali-treated cyclic peptide aqueous solution by liquid chromatography mass spectroscopy (LC/MS).
The alkali treatment was carried out by the following method. A 500 μM cyclic peptide aqueous solution was prepared, an equivalent of 1 M sodium hydroxide aqueous solution was added to this aqueous solution, and the resultant mixture was incubated at 15° C. for 3 hours to obtain an alkali-treated cyclic peptide aqueous solution. The cyclic peptide residual rate was calculated by setting the total area of all peaks of the cyclic peptide before alkali treatment in LC/MS to 100% and determining the proportion of the total area of all peaks in LC/MS of the alkali-treated cyclic peptide aqueous solution, and the molecule stability was evaluated according to the following evaluation standards. It is preferable that the evaluation result satisfies the evaluation standard A, B, or C.
The conditions of the LC/MS used for the evaluation of molecule stability were set as follows. • LC apparatus: Prominence series (pump, column oven, autosampler, detector) (manufactured by Shimadzu Corporation) • MS detector: LC/MS2010EV (manufactured by Shimadzu Corporation) • Column: Cadenza CD-C18, inner diameter 2.0 mm×length 250 mm, particle size: 3 μm (manufactured by Imtakt Corporation) • Eluent A: a solution (pH 3) containing 10 mM ammonium formate as a solute, where the solvent is 100% water. • Eluent B: a solution (pH 3) containing 10 mM ammonium formate as a solute, where the solvent is acetonitrile/water=90/10. • Flow rate: 0.2 mL/min • Injection volume: 4 μL • Gradient: 0% to 30%: Eluent B (0 to 30 minutes), 100%: Eluent B (30 to 40 minutes), 0%: Eluent B (40 to 60 minutes) • Column temperature: 45° C. • Ionization method: electrospray ionization (ESI) positive, ESI negative

The next data set deals with human integrin αvβ5 (Homo sapiens, UniProt P06756+P18084). Description: Evaluation of integrin binding property (surface plasmon resonance, Biacore 3000, immobilized cyclic peptide). The conditions noted are these: SPR, 25° C., HEPES buffer with 5 mM magnesium chloride, integrin 30-1,000 nM; read-out: Performance evaluation: Binding activity (dissociation constant between the cyclic peptide and human integrin αvβ5). The protocol: A commercially available CMS (a carboxymethyl dextran introduction type, manufactured by GE Healthcare) sensor chip was set in Biacore 3000, which is a surface plasmon resonance apparatus manufactured by GE Healthcare, the sensor was stabilized at a flow rate of 10 μL/min of a HEPES (4-(2-hydroxyethyl)-1-piperazineethanesulfonic acid) buffer solution (20 mM HEPES-HCl, 150 mM NaCl, pH 7.4) for surface plasmon resonance (SPR), and 70 μL of a mixed aqueous solution of 0.2 M 1-(3-dimethylaminopropyl)-3-ethylcarbodiimide (EDC) and 0.04 M N-hydroxysuccinimide (NHS) was added thereto. Here, the concentration unit M represents mol/L, and the same applies hereinafter. Then, 20 μL of the sample solution of each of the above cyclic peptides diluted to 0.2 g/L with the HEPES buffer solution was supplied to the sensor chip, blocking treatment was subsequently carried out with an ethanolamine solution, and washing was carried out with a sodium hydroxide aqueous solution, whereby immobilization was carried out. However, only for the cyclic peptides 125, 126, and 127, in which the number of lysine residues having an amino group as the immobilizing functional group was zero, the amount of the sample solution to be supplied to the sensor chip was set to 500 μL instead of 20 μL. Further, 70 μL of the mixed aqueous solution of 0.2 M EDC and 0.04 M NHS was added to another flow channel of the same sensor chip without immobilizing the sample, and then blocking treatment and washing treatment were carried out. Hereinafter, the obtained immobilization-treated sensor chip is referred to as an “immobilization-treated sensor chip A”.
Sequence of human integrin αvβ5 (P06756 31-1048): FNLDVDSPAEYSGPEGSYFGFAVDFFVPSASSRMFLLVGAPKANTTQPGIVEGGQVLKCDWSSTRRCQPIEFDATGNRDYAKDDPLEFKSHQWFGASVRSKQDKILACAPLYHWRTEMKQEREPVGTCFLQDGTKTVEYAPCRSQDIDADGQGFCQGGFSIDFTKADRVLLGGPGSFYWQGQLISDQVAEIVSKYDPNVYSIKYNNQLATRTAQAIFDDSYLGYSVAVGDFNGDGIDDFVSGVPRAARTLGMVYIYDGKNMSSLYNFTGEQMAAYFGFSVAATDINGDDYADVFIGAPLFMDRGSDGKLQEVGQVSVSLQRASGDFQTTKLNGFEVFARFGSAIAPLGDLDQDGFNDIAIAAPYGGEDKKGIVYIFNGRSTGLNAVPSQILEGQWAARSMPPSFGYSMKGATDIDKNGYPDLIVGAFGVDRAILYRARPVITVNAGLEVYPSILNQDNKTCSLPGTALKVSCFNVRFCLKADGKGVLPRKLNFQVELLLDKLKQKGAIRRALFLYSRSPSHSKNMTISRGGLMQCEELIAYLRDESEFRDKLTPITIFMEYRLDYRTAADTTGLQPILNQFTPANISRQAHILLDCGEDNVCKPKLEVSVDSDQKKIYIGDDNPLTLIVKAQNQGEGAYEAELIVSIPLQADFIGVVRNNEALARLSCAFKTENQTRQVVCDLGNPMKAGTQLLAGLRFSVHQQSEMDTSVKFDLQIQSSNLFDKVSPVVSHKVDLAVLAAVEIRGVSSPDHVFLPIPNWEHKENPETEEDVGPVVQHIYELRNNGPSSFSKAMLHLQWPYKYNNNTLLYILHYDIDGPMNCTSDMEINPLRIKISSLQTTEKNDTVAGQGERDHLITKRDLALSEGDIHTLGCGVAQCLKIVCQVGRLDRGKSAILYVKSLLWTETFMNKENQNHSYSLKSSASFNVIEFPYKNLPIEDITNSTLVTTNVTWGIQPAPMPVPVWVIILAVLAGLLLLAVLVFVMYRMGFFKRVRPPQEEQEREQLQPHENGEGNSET
Sequence of human integrin αvβ5 (P18084 24-799): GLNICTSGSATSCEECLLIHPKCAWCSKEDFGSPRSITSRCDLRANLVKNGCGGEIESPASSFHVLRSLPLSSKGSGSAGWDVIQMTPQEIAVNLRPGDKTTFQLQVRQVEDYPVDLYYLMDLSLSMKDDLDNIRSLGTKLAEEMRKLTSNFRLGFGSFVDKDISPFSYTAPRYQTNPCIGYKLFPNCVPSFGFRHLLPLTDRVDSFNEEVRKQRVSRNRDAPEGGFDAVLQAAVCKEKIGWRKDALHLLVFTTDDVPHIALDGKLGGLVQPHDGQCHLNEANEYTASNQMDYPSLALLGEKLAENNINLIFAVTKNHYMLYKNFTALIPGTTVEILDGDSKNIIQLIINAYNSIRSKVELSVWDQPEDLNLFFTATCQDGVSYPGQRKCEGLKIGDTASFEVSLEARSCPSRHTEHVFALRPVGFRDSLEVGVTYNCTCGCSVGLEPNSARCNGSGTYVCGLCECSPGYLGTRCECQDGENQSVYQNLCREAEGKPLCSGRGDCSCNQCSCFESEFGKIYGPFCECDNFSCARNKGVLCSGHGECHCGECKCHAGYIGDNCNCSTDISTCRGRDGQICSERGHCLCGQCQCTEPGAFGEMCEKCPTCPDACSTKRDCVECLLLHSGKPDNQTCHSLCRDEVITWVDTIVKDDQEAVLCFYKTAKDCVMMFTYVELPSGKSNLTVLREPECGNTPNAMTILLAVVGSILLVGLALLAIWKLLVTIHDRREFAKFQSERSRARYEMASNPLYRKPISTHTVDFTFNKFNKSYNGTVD
After adding human integrin αvβ5 for 10 minutes at 25° C., which was diluted to 30 nM using a HEPES buffer solution to which magnesium chloride was added to 5 mM, in each flow channel of the immobilization-treated sensor chip A prepared in (1) above, the same HEPES buffer solution (containing 5 mM magnesium chloride) was allowed to flow as a running buffer for 30 minutes, and measurement was carried out with Biacore 3000. Then, a regeneration treatment of removing human integrin αvβ5 was carried out by allowing a 0.5 M EDTA aqueous solution to flow through each flow channel for 10 minutes. Further, the above-described measurement process consisting of adding integrin for 10 minutes, allowing a running buffer to flow for 30 minutes, carrying out measurement with Biacore 3000, and carrying out regeneration treatment with 0.5 M EDTA aqueous solution was carried out in the same manner for 100 nM human integrin αvβ5, 300 nM human integrin αvβ5, and 1,000 nM human integrin αvβ5. Dissociation constant between the cyclic peptide and human integrin αvβ5 was calculated from the difference between the value measured by Biacore 3000 in the flow channel immobilized with the cyclic peptide and the value measured by Biacore 3000 in the flow channel unimmobilized with the cyclic peptide, in a case where each concentration of human integrin αvβ5 was allowed to flow, and the integrin binding property was evaluated according to the following evaluation standards. It is preferable that the evaluation result satisfies the evaluation standard A, B, or C.
(Surface plasmon resonance follows binding to a sensor surface in real time, without labels.)

Consider `CC[C@H](C)[C@@H]1NC(=O)[C@H](C)NC(=O)[C@@H](NC(=O)[C@H](CCCCN)NC(=O)[C@H](CCCCN)NC(=O)[C@@H](N)CCCCN)CCSCC(=O)NCC[C@@H](C(=O)N[C@@H](C)C(=O)O)NC(=O)[C@H](C)NC(=O)[C@H](CCCNC(=N)N)NC(=O)[C@H](Cc2ccccc2)NC(=O)[C@H](CC(N)=O)NC(=O)[C@H](CC(=O)O)NC(=O)CNC(=O)[C@H](CCCNC(=N)N)NC(=O)[C@@H]2CCCN2C1=O` [Cyclic peptide 17, KKK-(Hcy)-AIPRGDNFRA(Dab(acetyl))A] (H-KKK[hCys]AIPRGDNFRA[Dab]A-OH; linker 4-15 via X2), for which, in data set [1], the “Performance evaluation: Stability (residual rate of cyclic peptide after alkali treatment)” value is on record as “A (The residual rate of the cyclic peptide is 70% or more.)”. In addition, the Kd at human integrin αvβ5 fell in the range of 50 to 100 nM.

For `CC[C@H](C)[C@@H]1NC(=O)[C@H](C)NC(=O)[C@H](C)NC(=O)[C@@H](NC(=O)[C@H](CCCCN)NC(=O)[C@H](CCCCN)NC(=O)[C@@H](N)CCCCN)CCSCC(=O)NCC[C@@H](C(=O)N[C@@H](C)C(=O)O)NC(=O)[C@H](CCCNC(=N)N)NC(=O)[C@H](Cc2ccccc2)NC(=O)[C@H](CC(N)=O)NC(=O)[C@H](CC(=O)O)NC(=O)CNC(=O)[C@H](CCCNC(=N)N)NC(=O)[C@@H]2CCCN2C1=O` [Cyclic peptide 18, KKK-(Hcy)-AAIPRGDNFR(Dab(acetyl))A] (H-KKK[hCys]AAIPRGDNFR[Dab]A-OH; linker 4-15 via X2), the “Performance evaluation: Stability (residual rate of cyclic peptide after alkali treatment)” value in data set [1] is on record as “A (The residual rate of the cyclic peptide is 70% or more.)”. For the same molecule, the Kd at human integrin αvβ5 lay in the range of 50 to 100 nM.

Turning to `CC[C@H](C)[C@@H]1NC(=O)[C@@H](NC(=O)[C@H](CCCCN)NC(=O)[C@H](CCCCN)NC(=O)[C@@H](N)CCCCN)CCSCC(=O)NCC[C@@H](C(=O)N[C@@H](C)C(=O)O)NC(=O)[C@H](C)NC(=O)[C@H](C)NC(=O)[C@H](CCCNC(=N)N)NC(=O)[C@H](Cc2ccccc2)NC(=O)[C@H](CC(N)=O)NC(=O)[C@H](CC(=O)O)NC(=O)CNC(=O)[C@H](CCCNC(=N)N)NC(=O)[C@@H]2CCCN2C1=O` [Cyclic peptide 19, KKK-(Hcy)-IPRGDNFRAA(Dab(acetyl))A] (H-KKK[hCys]IPRGDNFRAA[Dab]A-OH; linker 4-15 via X2), in data set [1], the “Performance evaluation: Stability (residual rate of cyclic peptide after alkali treatment)” value is “A (The residual rate of the cyclic peptide is 70% or more.)”. In addition, the Kd at human integrin αvβ5 was less than 50 nM.

Turning to `CC[C@H](C)[C@@H]1NC(=O)[C@H](C)NC(=O)[C@@H](NC(=O)CNC(=O)[C@H](CCCCN)NC(=O)[C@H](CCCCN)NC(=O)[C@@H](N)CCCCN)CCSCC(=O)NCC[C@@H](C(=O)N[C@@H](C)C(=O)O)NC(=O)[C@H](C)NC(=O)[C@H](CCCNC(=N)N)NC(=O)[C@H](Cc2ccccc2)NC(=O)[C@H](CC(N)=O)NC(=O)[C@H](CC(=O)O)NC(=O)CNC(=O)[C@H](CCCNC(=N)N)NC(=O)[C@@H]2CCCN2C1=O` [Cyclic peptide 20, KKKG-(Hcy)-AIPRGDNFRA(Dab(acetyl))A] (H-KKKG[hCys]AIPRGDNFRA[Dab]A-OH; linker 5-16 via X2), the “Performance evaluation: Stability (residual rate of cyclic peptide after alkali treatment)” value in data set [1] was “A (The residual rate of the cyclic peptide is 70% or more.)”. The Kd on human integrin αvβ5 fell in the range of 50 to 100 nM.

As to `CC(C)[C@@H]1NC(=O)[C@@H](NC(=O)[C@H](CCCCN)NC(=O)[C@H](CCCCN)NC(=O)[C@@H](N)CCCCN)CCSCC(=O)NCC[C@@H](C(=O)N[C@@H](C)C(=O)O)NC(=O)[C@H](CCCNC(=N)N)NC(=O)[C@H](Cc2ccccc2)NC(=O)[C@H](CC(N)=O)NC(=O)[C@H](CC(=O)O)NC(=O)CNC(=O)[C@H](CCCNC(=N)N)NC(=O)[C@@H]2CCCN2C1=O` [Cyclic peptide 21, KKK-(Hcy)-VPRGDNFR(Dab(acetyl))A] (H-KKK[hCys]VPRGDNFR[Dab]A-OH; linker 4-13 via X2), in data set [1], the “Performance evaluation: Stability (residual rate of cyclic peptide after alkali treatment)” value was “A (The residual rate of the cyclic peptide is 70% or more.)”. The Kd on human integrin αvβ5 is less than 50 nM.

Take `C[C@H](NC(=O)[C@@H]1CCNC(=O)CSCC[C@H](NC(=O)[C@H](CCCCN)NC(=O)[C@H](CCCCN)NC(=O)[C@@H](N)CCCCN)C(=O)N[C@@H](CC(=O)O)C(=O)N2CCC[C@H]2C(=O)N[C@@H](CCCNC(=N)N)C(=O)NCC(=O)N[C@@H](CC(=O)O)C(=O)N[C@@H](CC(N)=O)C(=O)N[C@@H](Cc2ccccc2)C(=O)N[C@@H](CCCNC(=N)N)C(=O)N1)C(=O)O` [Cyclic peptide 22, KKK-(Hcy)-DPRGDNFR(Dab(acetyl))A] (H-KKK[hCys]DPRGDNFR[Dab]A-OH; linker 4-13 via X2): the “Performance evaluation: Stability (residual rate of cyclic peptide after alkali treatment)” value in data set [1] is on record as “A (The residual rate of the cyclic peptide is 70% or more.)”. In addition, the Kd at human integrin αvβ5 lay in the range of 50 to 100 nM.

With `C[C@H](NC(=O)[C@@H]1CCNC(=O)CSCC[C@H](NC(=O)[C@H](CCCCN)NC(=O)[C@H](CCCCN)NC(=O)[C@@H](N)CCCCN)C(=O)N[C@@H](CCC(=O)O)C(=O)N2CCC[C@H]2C(=O)N[C@@H](CCCNC(=N)N)C(=O)NCC(=O)N[C@@H](CC(=O)O)C(=O)N[C@@H](CC(N)=O)C(=O)N[C@@H](Cc2ccccc2)C(=O)N[C@@H](CCCNC(=N)N)C(=O)N1)C(=O)O` [Cyclic peptide 23, KKK-(Hcy)-EPRGDNFR(Dab(acetyl))A] (H-KKK[hCys]EPRGDNFR[Dab]A-OH; linker 4-13 via X2), the “Performance evaluation: Stability (residual rate of cyclic peptide after alkali treatment)” value in data set [1] is “A (The residual rate of the cyclic peptide is 70% or more.)”. Further, the Kd at human integrin αvβ5 is less than 50 nM.

For `C[C@H](NC(=O)[C@@H]1CCNC(=O)CSCC[C@H](NC(=O)[C@H](CCCCN)NC(=O)[C@H](CCCCN)NC(=O)[C@@H](N)CCCCN)C(=O)N[C@@H](Cc2ccc(O)cc2)C(=O)N2CCC[C@H]2C(=O)N[C@@H](CCCNC(=N)N)C(=O)NCC(=O)N[C@@H](CC(=O)O)C(=O)N[C@@H](CC(N)=O)C(=O)N[C@@H](Cc2ccccc2)C(=O)N[C@@H](CCCNC(=N)N)C(=O)N1)C(=O)O` [Cyclic peptide 24, KKK-(Hcy)-YPRGDNFR(Dab(acetyl))A] (H-KKK[hCys]YPRGDNFR[Dab]A-OH; linker 4-13 via X2), the “Performance evaluation: Stability (residual rate of cyclic peptide after alkali treatment)” value in data set [1] is on record as “A (The residual rate of the cyclic peptide is 70% or more.)”. Also, the Kd on human integrin αvβ5 is less than 50 nM.

As for `CC[C@H](C)[C@@H]1NC(=O)[C@@H](NC(=O)[C@H](CCCCN)NC(=O)[C@H](CCCCN)NC(=O)[C@@H](N)CCCCN)CCSCC(=O)NCC[C@@H](C(=O)N[C@@H](C)C(=O)O)NC(=O)[C@H](CCCNC(=N)N)NC(=O)[C@H](Cc2ccccc2)NC(=O)[C@H](CO)NC(=O)[C@H](CC(=O)O)NC(=O)CNC(=O)[C@H](CCCNC(=N)N)NC(=O)[C@@H]2CCCN2C1=O` [Cyclic peptide 25, KKK-(Hcy)-IPRGDSFR(Dab(acetyl))A] (H-KKK[hCys]IPRGDSFR[Dab]A-OH; linker 4-13 via X2), the “Performance evaluation: Stability (residual rate of cyclic peptide after alkali treatment)” value in data set [1] is “A (The residual rate of the cyclic peptide is 70% or more.)”. Further, the Kd at human integrin αvβ5 fell in the range of 50 to 100 nM.
